The values below come from patent US7498343B2, “Mycobacterial inhibitors” (priority 2002, dated 2009).

Assay [1] has as its system Mycobacterium tuberculosis (strain H37RV). Kind of assay: In-vitro method for testing compounds against M. tuberculosis (resazurin growth inhibition, MIC). To be noted: MIC data representing IC90's, 7 days incubation, resazurin fluorescence. The format is cell-based. On the technique in general: The colour change of resazurin is a common sign of viable cells or microbes.

Another assay has as its system M. Smegmatis ATCC607. The assay can be described thus: In-vitro method for testing compounds for anti-bacterial activity against strain M. smegmatis ATCC607 (Alamar Blue growth inhibition). The format is cell-based. As to conditions: M. smegmatis ATCC607; pIC50 = -logIC50, IC50 in M, 50% inhibitory concentration for bacterial growth; 48 hours incubation. Summed up: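 About 250 CFU/well M. smegmatis ATCC607 in Mueller-Hinton broth exposed to five-fold serial compound dilutions, 48 h at 37 °C, humidified 5% CO2. Growth read by Alamar Blue fluorescence (ex 530/em 590 nm) after 2 h further incubation; % growth inhibition calculated.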

Each structure is given as a SMILES string.

By pIC50 is commonly meant the IC50 on a negative log10 scale, so that one unit is a factor of ten. A low value points to a high IC50. Consider `COc1nc2ccc(Br)cc2cc1C(c1ccccc1)C(O)(CCN(C)C)c1ccc2c3c(cccc13)CC2` (single isomer, unassigned) [Compound 122], for which the MIC in assay [1] is recorded as 58.16 microgram/ml. For the same compound, the negative logarithm of the IC50 (pIC50) in the assay on M. Smegmatis ATCC607 is listed as 4.8.

As to `COc1nc2ccc(Br)cc2cc1C(c1ccccc1)C(O)(CCCN(C)C)c1ccc2ccccc2c1` (single isomer, unassigned) [Compound 125], the MIC in assay [1] is given as 18.01 microgram/ml. This compound yielded a negative logarithm of the IC50 (pIC50) with M. Smegmatis ATCC607 of 4.4.

On to `COc1nc2ccc(Br)cc2cc1C(c1ccccc1)C(O)(CCCN(C)C)c1ccc2ccccc2c1` (single isomer, unassigned) [Compound 126], for which the MIC in assay [1] was found to be 56.96 microgram/ml. Moreover, the pIC50 with M. Smegmatis ATCC607 was determined as 5.2.

In turn, `COc1nc2ccc(Br)cc2cc1C(c1ccccc1)C(O)(CCN(C)C)c1ccc2c(Br)cccc2c1` (single isomer, unassigned) [Compound 127] gave an MIC in assay [1] of 25.26 microgram/ml. Further, in the assay on M. Smegmatis ATCC607, the pIC50 worked out at 6.9.

For `COc1nc2ccc(Br)cc2cc1C(c1ccccc1)C(O)(CCN(C)C)c1ccc2c(Br)cccc2c1` (single isomer, unassigned) [Compound 130], the MIC in assay [1] is 50.32 microgram/ml. This compound also registered a pIC50 in the assay with M. Smegmatis ATCC607 of 5.3.

Turning to `COc1nc2ccc(Br)cc2cc1C(c1ccccc1)C(O)(CCN(C)C)c1cccc2c1CCCC2` (single isomer, unassigned) [Compound 131], the MIC in assay [1] is on record as 44.45 microgram/ml. The same compound gave a pIC50 in the assay with M. Smegmatis ATCC607 of 6.9.

Compound `COc1nc2ccc(Br)cc2cc1C(c1ccccc1)C(O)(CCCN1CCCC1)c1ccc2ccccc2c1` (single isomer, unassigned) [Compound 132] showed an MIC in assay [1] of 47.31 microgram/ml. In the assay with M. Smegmatis ATCC607, this compound displayed a pIC50 of 4.4.

`COc1nc2ccc(Br)cc2cc1C(c1ccccc1)C(O)(CCCN1CCCC1)c1ccc2ccccc2c1` (single isomer, unassigned) [Compound 133] displayed an MIC in assay [1] of 59.56 microgram/ml. In the assay with M. Smegmatis ATCC607, this compound had a pIC50 of 5.1.

`COc1ccc2nc(OC)c(C(c3ccccc3)C(O)(CCN(C)C)c3cccc(F)c3)cc2c1` (single isomer, unassigned) [Compound 134] displayed an MIC in assay [1] of 7.52 microgram/ml. The compound further registered a pIC50 with M. Smegmatis ATCC607 of 6.5.

For `COc1ccc2nc(OC)c(C(c3ccccc3)C(O)(CCN(C)C)c3cccc(F)c3)cc2c1` (single isomer, unassigned) [Compound 135], the MIC in assay [1] is recorded as 1.50 microgram/ml. Further, in the assay with M. Smegmatis ATCC607, the pIC50 worked out at 7.4.

In the case of `CN(C)CCC(O)(c1cccc2ccccc12)C(c1ccccc1)c1cc2cc(Br)ccc2[nH]c1=O` (single isomer, unassigned) [Compound 138], the MIC in assay [1] was 8.58 microgram/ml. In addition, in the assay on M. Smegmatis ATCC607, the pIC50 is listed as 6.6.

On to `COc1nc2ccc(Br)cc2cc1C(c1ccccc1)C(O)(CCN1CCOCC1)c1ccc2ccccc2c1` (single isomer, unassigned) [Compound 139], for which the MIC in assay [1] is recorded as 59.76 microgram/ml. The pIC50 in the assay on M. Smegmatis ATCC607 amounted to 4.1.

In assay [1], `COc1nc2ccc(Br)cc2cc1C(c1ccccc1)C(O)(CCN1CCOCC1)c1ccc2ccccc2c1` (single isomer, unassigned) [Compound 140] registered an MIC of 59.76 microgram/ml. This compound gave a negative-log IC50 (pIC50) with M. Smegmatis ATCC607 of 5.8.

In turn, `COc1nc2ccc(Br)cc2cc1C(c1ccccc1)C(O)(CCN(C)C)c1cc(Br)cc2ccccc12` (single isomer, unassigned) [Compound 143] registered an MIC in assay [1] of 50.39 microgram/ml. Besides, the pIC50 in the assay with M. Smegmatis ATCC607 was 6.9.

On to `COc1nc2ccc(Br)cc2cc1C(c1ccccc1)C(O)(CCN1CCCC1)c1ccc2ccccc2c1` (single isomer, unassigned) [Compound 144], for which, in assay [1], the MIC is 52.46 microgram/ml. For the same compound, the negative-log IC50 (pIC50) in the assay on M. Smegmatis ATCC607 worked out at 7.0.

As for `COc1nc2ccc(Br)cc2cc1C(c1ccccc1)C(O)(CCN1CCN(C)CC1)c1cccc2ccccc12` (single isomer, unassigned) [Compound 149], the MIC in assay [1] was found to be 48.50 microgram/ml. Moreover, the pIC50 in the assay on M. Smegmatis ATCC607 is 5.1.

Compound `COc1nc2ccc(Br)cc2cc1C(c1ccccc1)C(O)(CCN(C)C)c1cc(Br)cc2ccccc12` (single isomer, unassigned) [Compound 150] returned an MIC in assay [1] of 63.44 microgram/ml. In addition, the pIC50 in the assay on M. Smegmatis ATCC607 worked out at 5.7.

In assay [1], `COc1nc2ccc(Br)cc2cc1C(c1ccccc1)C(O)(CCN1CCN(C)CC1)c1cc(Br)cc2ccccc12` (single isomer, unassigned) [Compound 151] displayed an MIC of 13.76 microgram/ml. The compound further gave a pIC50 in the assay with M. Smegmatis ATCC607 of 5.0.

Regarding `COc1nc2ccc(Br)cc2cc1C(c1ccccc1)C(O)(CCN1CCN(C)CC1)c1cc(Br)cc2ccccc12` (single isomer, unassigned) [Compound 152], the MIC in assay [1] is 10.93 microgram/ml. In the assay with M. Smegmatis ATCC607, this compound returned a pIC50 of 5.8.

Compound `COc1nc2ccc(Br)cc2cc1C(c1ccccc1)C(O)(CCN1CCN(C)CC1)c1ccc2cc(Br)ccc2c1` (single isomer, unassigned) [Compound 153] showed an MIC in assay [1] of 54.77 microgram/ml. Further, the pIC50 in the assay on M. Smegmatis ATCC607 came out at 5.3.

The compound `COc1nc2ccc(Br)cc2cc1C(c1ccccc1)C(O)(CCN1CCN(C)CC1)c1ccc2cc(Br)ccc2c1` (single isomer, unassigned) [Compound 154] had an MIC in assay [1] of 68.95 microgram/ml. The pIC50 with M. Smegmatis ATCC607 is 4.9.

The compound `COc1nc2ccc(Br)cc2cc1C(c1ccccc1)C(O)(CCN1CCN(C)CC1)c1cccc2ccccc12` (single isomer, unassigned) [Compound 156] came in with an MIC in assay [1] of 9.68 microgram/ml. This compound also gave a pIC50 in the assay with M. Smegmatis ATCC607 of 5.3.

In turn, `COc1nc2ccc(Br)cc2cc1C(c1ccccc1)C(O)(CCN1CCCC1)c1ccc2cc(Br)ccc2c1` (single isomer, unassigned) [Compound 157] registered an MIC in assay [1] of 52.46 microgram/ml. Further, in the assay on M. Smegmatis ATCC607, the pIC50 was found to be 5.6.

The compound `COc1nc2ccc(Br)cc2cc1C(c1ccccc1)C(O)(CCN1CCOCC1)c1cccc2ccccc12` (single isomer, unassigned) [Compound 158] displayed an MIC in assay [1] of 59.76 microgram/ml. Also, in the assay on M. Smegmatis ATCC607, the pIC50 worked out at 5.3.

As to `COc1ccc2cc(C(O)(CCN(C)C)C(c3ccccc3)c3cc4cc(Br)ccc4nc3OC)ccc2c1` (single isomer, unassigned) [Compound 162], the MIC in assay [1] is recorded as 9.28 microgram/ml. This compound came in with a pIC50 in the assay with M. Smegmatis ATCC607 of 7.0.

Take `COc1ccc2cc(C(O)(CCN(C)C)C(c3ccccc3)c3cc4cc(Br)ccc4nc3OC)ccc2c1` (single isomer, unassigned) [Compound 163]: the MIC in assay [1] turned out to be 46.51 microgram/ml. Moreover, the pIC50 in the assay on M. Smegmatis ATCC607 came out at 5.9.

`COCCOc1nc2ccc(Br)cc2cc1C(c1ccccc1)C(O)(CCN(C)C)c1cccc(F)c1` (single isomer, unassigned) [Compound 164] had an MIC in assay [1] of 0.36 microgram/ml. The compound further displayed a pIC50 with M. Smegmatis ATCC607 of 7.9.

The compound `COCCOc1nc2ccc(Br)cc2cc1C(c1ccccc1)C(O)(CCN(C)C)c1cccc(F)c1` (single isomer, unassigned) [Compound 165] came in with an MIC in assay [1] of 2.26 microgram/ml. For the same compound, the pIC50 in the assay on M. Smegmatis ATCC607 turned out to be 6.6.

As for `COc1nc2ccc(Br)cc2cc1C(c1ccccc1)C(O)(CCN(C)C)c1c(F)cccc1F` (single isomer, unassigned) [Compound 167], in assay [1], the MIC stood at 43.01 microgram/ml. The same compound gave a pIC50 in the assay on M. Smegmatis ATCC607 of 5.5.

For `COc1nc2ccc(Br)cc2cc1C(c1ccccc1)C(O)(CCn1ccnc1)c1cccc2ccccc12` (single isomer, unassigned) [Compound 173], in assay [1], the MIC turned out to be 57.85 microgram/ml. Also, in the assay on M. Smegmatis ATCC607, the pIC50 amounted to 4.7.

`COc1nc2ccc(-c3ccco3)cc2cc1C(c1ccccc1)C(O)(CCN(C)C)c1cccc(F)c1` (single isomer, unassigned) [Compound 174] came in with an MIC in assay [1] of 0.06 microgram/ml. Besides, the pIC50 in the assay with M. Smegmatis ATCC607 is given as 6.8.

On to `COc1nc2ccc(-c3ccco3)cc2cc1C(c1ccccc1)C(O)(CCN(C)C)c1cccc(F)c1` (single isomer, unassigned) [Compound 175], for which the MIC in assay [1] came out at 10.19 microgram/ml. The pIC50 in the assay on M. Smegmatis ATCC607 was 6.5.

`COCCOc1nc2ccc(Br)cc2cc1C(c1ccccc1)C(O)(CCN(C)C)c1cccc2ccccc12` (single isomer, unassigned) [Compound 176] yielded an MIC in assay [1] of 9.50 microgram/ml. The compound also displayed a pIC50 with M. Smegmatis ATCC607 of 6.8.

On to `COc1nc2ccc(Br)cc2cc1C(c1ccccc1)C(O)(CCN1CCOCC1)c1ccc2cc(Br)ccc2c1` (single isomer, unassigned) [Compound 178], for which, in assay [1], the MIC stood at 67.65 microgram/ml. In addition, the pIC50 with M. Smegmatis ATCC607 came to 4.5.

In the case of `COc1nc2ccc(C#N)cc2cc1C(c1ccccc1)C(O)(CCN(C)C)c1cccc(F)c1` (single isomer, unassigned) [Compound 179], the MIC in assay [1] was determined as 1.48 microgram/ml. In the assay with M. Smegmatis ATCC607, this compound returned a pIC50 of 7.0.

For the compound `COc1nc2ccc(C#N)cc2cc1C(c1ccccc1)C(O)(CCN(C)C)c1cccc(F)c1` (single isomer, unassigned) [Compound 180], the MIC in assay [1] was determined as 3.73 microgram/ml. Moreover, the pIC50 in the assay on M. Smegmatis ATCC607 amounted to 6.6.

In assay [1], `COc1nc2ccc(Br)cc2cc1C(c1ccccc1)C(O)(CCN(C)C)c1ccc(F)cc1` (single isomer, unassigned) [Compound 181] registered an MIC of 8.30 microgram/ml. For the same compound, in the assay on M. Smegmatis ATCC607, the pIC50 was 6.9.

`COc1nc2ccc(Br)cc2cc1C(c1ccccc1)C(O)(CCN(C)C)c1ccc(F)cc1` (single isomer, unassigned) [Compound 182] displayed an MIC in assay [1] of 8.30 microgram/ml. The compound also yielded a pIC50 with M. Smegmatis ATCC607 of 6.3.

In assay [1], `COc1nc2ccc(Br)cc2cc1C(c1ccccc1)C(O)(CCN(C)C)c1cccc(C(F)(F)F)c1` (single isomer, unassigned) [Compound 183] had an MIC of 0.36 microgram/ml. The compound further yielded a pIC50 in the assay with M. Smegmatis ATCC607 of 8.3.
